The source of these data is the NIST ThermoML archive (doi:10.1021/je0498356).

Structures are written as SMILES. Numbers after ± are expanded uncertainties.

For this data set the following is noted: Liquid.

`O=C(O)CCCC(=O)O` [1,5-pentanedioic acid]: the Critical pressure came out at 4270 ± 200 kPa and the Critical temperature stood at 840 ± 13 K.
On the same counts, the results for `O=C(O)CCCCC(=O)O` [1,6-hexanedioic acid] are 3850 ± 150 kPa and 841 ± 13 K.
The matching figures for `O=C(O)CCCCCC(=O)O` [1,7-heptanedioic acid]: 3280 ± 130 kPa and 842 ± 13 K.
The matching figures for `O=C(O)CCCCCCC(=O)O` [1,8-octanedioic acid]: 2970 ± 120 kPa and 843 ± 13 K.
As to `O=C(O)CCCCCCCC(=O)O` [1,9-nonanedioic acid], the Critical pressure is given as 2720 ± 110 kPa and the Critical temperature is 844 ± 13 K.
On the same counts, the results for `O=C(O)CCCCCCCCC(=O)O` [1,10-decanedioic acid] are 2500 ± 100 kPa and 845 ± 13 K.
The matching figures for `O=C(O)CCCCCCCCCCCCC(=O)O` [1,12-dodecanedicarboxylic acid]: 1900 ± 80 kPa and 862 ± 13 K.
On the same counts, the results for `O=C(O)CCCCCCCCCCC(=O)O` [1,12-dodecanedioic acid] are 2150 ± 90 kPa and 859 ± 13 K.
`O=C(O)CCC(=O)O` [butanedioic acid]: the Critical pressure is 6590 ± 300 kPa and the Critical temperature was 851 ± 20 K.
